In patent US11932658B2 (BRISTOL-MYERS SQUIBB COMPANY, priority 2016, dated 2024):

Each molecule was assayed against T1, PAR4 (Homo sapiens, UniProt Q96RI0) (assay: PAR4 FLIPR assay (antagonism of agonist peptide-induced calcium mobilization)).
T1 construct: expressed in transfected cells; host or cells: HEK293 PAR4 Clone 1.2A (BMS Arctic ID 383940)
T1 sequence (Q96RI0 18-385): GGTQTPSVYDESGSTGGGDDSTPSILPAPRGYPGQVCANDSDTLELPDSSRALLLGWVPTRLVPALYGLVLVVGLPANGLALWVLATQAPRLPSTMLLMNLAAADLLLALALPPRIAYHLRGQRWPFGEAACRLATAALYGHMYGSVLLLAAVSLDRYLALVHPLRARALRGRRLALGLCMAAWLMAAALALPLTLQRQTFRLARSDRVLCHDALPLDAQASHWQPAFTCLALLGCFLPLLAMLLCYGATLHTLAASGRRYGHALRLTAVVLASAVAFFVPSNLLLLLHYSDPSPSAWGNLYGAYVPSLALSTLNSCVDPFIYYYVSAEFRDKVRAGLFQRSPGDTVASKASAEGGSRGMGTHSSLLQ
Assay type: cell-based
Outline: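 Antagonism was taken as block of calcium mobilization evoked by the agonist peptide H-Ala-Phe(4-F)-Pro-Gly-Trp-Leu-Val-Lys-Asn-[…]-NH2, added after 30 min room-temperature compound preincubation in dye-loaded PAR4-transfected HEK293 cells (endogenous PAR1). Fluorescence was read on FDSS, with compound addition alone used as the agonist counter-screen; values come from 11-point concentration-response curves.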

Structure (SMILES)	IC50 [nM]
COc1cnc2c(-c3nc4cc(F)c5c(c4s3)C[C@@](C)(COC(=O)Nc3cnc(C)nc3)O5)cc(C)cc2n1 [Example 174, (S)-(5-fluoro-2-(2-methoxy-7-methylquinoxalin-5-yl)-7-methyl-7,8-dihydrobenzofuro[5,4-d]thiazol-7-yl)methyl (2-methylpyrimidin-5-yl)carbamate]	30
COc1cnc2c(-c3nc4cc(F)c5c(c4s3)C[C@@](C)(COC(=O)Nc3cccnc3)O5)cc(C)cc2n1 [Example 175, (S)-(5-fluoro-2-(2-methoxy-7-methylquinoxalin-5-yl)-7-methyl-7,8-dihydrobenzofuro[5,4-d]thiazol-7-yl)methyl pyridin-3-ylcarbamate]	19
COc1cnc2c(-c3nc4cc(F)c5c(c4s3)C[C@@](C)(COC(=O)Nc3cccc(C#N)c3)O5)cc(C)cc2n1 [Example 176, (S)-(5-fluoro-2-(2-methoxy-7-methylquinoxalin-5-yl)-7-methyl-7,8-dihydrobenzofuro[5,4-d]thiazol-7-yl)methyl (3-cyanophenyl)carbamate]	6.1
COc1cnc2c(-c3nc4cc(F)c5c(c4s3)C[C@H](COC(=O)Nc3cnc(OC)nc3)O5)cc(C)cc2n1 [Example 177, (R)-(5-fluoro-2-(2-methoxy-7-methylquinoxalin-5-yl)-7,8-dihydrobenzofuro[5,4-d]thiazol-7-yl)methyl (2-methoxypyrimidin-5-yl)carbamate]	2.8
COc1cnc2c(-c3nc4cc(F)c5c(c4s3)C[C@H](COC(=O)Nc3ccc4c(c3)C(=O)NC4)O5)cc(C)cc2n1 [Example 178, (R)-(5-fluoro-2-(2-methoxy-7-methylquinoxalin-5-yl)-7,8-dihydrobenzofuro[5,4-d]thiazo 1-7-yl)methyl (3-oxoisoindolin-5-yl)carbamate]	2.3
COc1cnc2c(-c3nc4cc(F)c5c(c4s3)C[C@H](COC(=O)Nc3cc(F)cc(C#N)c3)O5)cc(C)cc2n1 [Example 179, (R)-(5-fluoro-2-(2-methoxy-7-methylquinoxalin-5-yl)-7,8-dihydrobenzofuro[5,4-d]thiazo 1-7-yl)methyl (3-cyano-5-fluorophenyl)carbamate]	2.4
COc1cnc2c(-c3nc4cc(F)c5c(c4s3)C[C@H](COC(=O)Nc3cccc(C(N)=O)c3)O5)cc(C)cc2n1 [Example 180, (R)-(5-fluoro-2-(2-methoxy-7-methylquinoxalin-5-yl)-7,8-dihydrobenzofuro[5,4-d]thiazol-7-yl)methyl (3-carbamoylphenyl)carbamate]	1.6
COc1cnc2c(-c3nc4cc(F)c5c(c4s3)C[C@](C)(CO)O5)cc(C)cc2n1 [Example 181, (R)-(5-fluoro-2-(2-methoxy-7-methylquinoxalin-5-yl)-7-methyl-7,8-dihydrobenzofuro[5,4-d]thiazol-7-yl)methanol]	52
COc1cnc2c(-c3nc4cc(F)c5c(c4s3)C[C@](C)(COC(=O)Nc3cnc(C)nc3)O5)cc(C)cc2n1 [Example 182, (R)-(5-fluoro-2-(2-methoxy-7-methylquinoxalin-5-yl)-7-methyl-7,8-dihydrobenzofuro[5,4-d]thiazol-7-yl)methyl (2-methylpyrimidin-5-yl)carbamate]	2.6
COc1cnc2c(-c3nc4cc(F)c5c(c4s3)C[C@](C)(COC(=O)Nc3cccnc3)O5)cc(C)cc2n1 [Example 183, (R)-(5-fluoro-2-(2-methoxy-7-methylquinoxalin-5-yl)-7-methyl-7,8-dihydrobenzofuro[5,4-d]thiazol-7-yl)methyl pyridin-3-ylcarbamate]	2.3
COc1cnc2c(-c3nc4cc(F)c5c(c4s3)C[C@](C)(COC(=O)Nc3cccc(C#N)c3)O5)cc(C)cc2n1 [Example 184, (R)-(5-fluoro-2-(2-methoxy-7-methylquinoxalin-5-yl)-7-methyl-7,8-dihydrobenzofuro[5,4-d]thiazol-7-yl)methyl (3-cyanophenyl)carbamate]	1.8
COc1cnc2c(-c3nc4cc(F)c5c(c4s3)C[C@H](COC(=O)Nc3cncnc3)O5)cc(C)cc2n1 [Example 185]	6.9
COc1cnc2c(-c3nc4ccc5c(c4s3)CC(C)(C)O5)cc(C)cc2n1 [Example 186, 2-(2-methoxy-7-methylquinoxalin-5-yl)-7,7-dimethyl-7,8-dihydrobenzofuro[5,4-d]thiazole]	8.8
COc1cnc2c(-c3nc4ccc5c(c4s3)C(C)C(CO)O5)cc(C)cc2n1 (stereo not shown) [Example 189, (2-(2-methoxy-7-methylquinoxalin-5-yl)-8-methyl-7,8-dihydrobenzofuro[5,4-d]thiazol-7-yl)methanol]	11
COC(=O)NCC1Cc2c(ccc3nc(-c4cc(C)cc5nc(OC)cnc45)sc23)O1 (stereo not shown) [Example 191, Methyl ((2-(2-methoxy-7-methylquinoxalin-5-yl)-7,8-dihydrobenzofuro[5,4-d]thiazol-7-yl)methy 1)carbamate]	7.1
COc1cnc2c(-c3nc4ccc5c(c4s3)CC(CNC(=O)Oc3ccccc3)O5)cc(C)cc2n1 (stereo not shown) [Example 192, Phenyl ((2-(2-methoxy-7-methylquinoxalin-5-yl)-7,8-dihydrobenzofuro[5,4-d]thiazol-7-yl)methy 1)carbamate]	8.3
COc1cnc2c(-c3nc4ccc5c(c4s3)CC(CNC(=O)OCc3ccccc3)O5)cc(C)cc2n1 (stereo not shown) [Example 193, Benzyl ((2-(2-methoxy-7-methylquinoxalin-5-yl)-7,8-dihydrobenzofuro[5,4-d]thiazol-7-yl)methyl)carbamate]	5.3
COc1cnc2c(-c3nc4ccc5c(c4s3)C[C@](C)(COC(=O)Nc3cnc(C)nc3)O5)cc(C)cc2n1 [Example 194, (R)-(2-(2-methoxy-7-methylquinoxalin-5-yl)-7-methyl-7,8-dihydrobenzofuro[5,4-d]thiazol-7-yl)methyl (2-methylpyrimidin-5-yl)carbamate]	2.5
COc1cnc2c(-c3nc4ccc5c(c4s3)C[C@](C)(COC(=O)Nc3cccnc3)O5)cc(C)cc2n1 [Example 195, (R)-(2-(2-methoxy-7-methylquinoxalin-5-yl)-7-methyl-7,8-dihydrobenzofuro[5,4-d]thiazol-7-yl)methyl pyridin-3-ylcarbamate]	3.5
COc1cnc2c(-c3nc4ccc5c(c4s3)C[C@](C)(COC(=O)Nc3cccc(C#N)c3)O5)cc(C)cc2n1 [Example 196, (R)-(2-(2-methoxy-7-methylquinoxalin-5-yl)-7-methyl-7,8-dihydrobenzofuro[5,4-d]thiazol-7-yl)methyl (3-cyanophenyl)carbamate]	1.6
CCOC(=O)NCC1Cc2c(ccc3nc(-c4cc(C)cc5nc(OC)cnc45)sc23)O1 (stereo not shown) [Example 197, Ethyl ((2-(2-methoxy-7-methylquinoxalin-5-yl)-7,8-dihydrobenzofuro[5,4-d]thiazol-7-yl)methyl)carbamate]	22
COc1cnc2c(-c3nc4ccc5c(c4s3)CC(CNC(=O)OCC(C)C)O5)cc(C)cc2n1 (stereo not shown) [Example 198, Isobutyl ((2-(2-methoxy-7-methylquinoxalin-5-yl)-7,8-dihydrobenzofuro[5,4-d]thiazol-7-yl)methy 1)carbamate]	3.1
COc1cnc2c(-c3nc4cc(F)c5c(c4s3)CC(C)(C)O5)cc(C)cc2n1 [Example 200, 5-fluoro-2-(2-methoxy-7-methylquinoxalin-5-yl)-7,7-dimethyl-7,8-dihydrobenzofuro[5,4-d]thiazole]	7.9
COc1cnc2c(-c3nc4cc(F)c5c(c4s3)C[C@@H](CNC(=O)OC(C)(C)C)O5)cc(C)cc2n1 [Example 202, (S)-tert-butyl ((5-fluoro-2-(2-methoxy-7-methylquinoxalin-5-yl)-7,8-dihydrobenzofuro[5,4-d]thiazol-7-yl)methyl)carbamate]	6.5
COc1cnc2c(-c3nc4cc(F)c5c(c4s3)C[C@H](COC(=O)Nc3cccc(C(=O)N(C)C)c3)O5)cc(C)cc2n1 [Example 203, (R)-(5-fluoro-2-(2-methoxy-7-methylquinoxalin-5-yl)-7,8-dihydrobenzofuro[5,4-d]thiazo 1-7-yl)methyl (3-(dimethylcarbamoyl)phenyl)carbamate]	2.3
COc1cnc2c(-c3nc4cc(F)c5c(c4s3)C[C@H](COC(=O)Nc3ccc(C(=O)N(C)C)cc3)O5)cc(C)cc2n1 [Example 204, (R)-(5-fluoro-2-(2-methoxy-7-methylquinoxalin-5-yl)-7,8-dihydrobenzofuro[5,4-d]thiazo 1-7-yl)methyl (4-(dimethylcarbamoyl)phenyl)carbamate]	2.3
COc1cnc2c(-c3nc4cc(F)c5c(c4s3)C[C@H](COC(=O)Nc3cncc(C(N)=O)c3)O5)cc(C)cc2n1 [Example 205, (R)-(5-fluoro-2-(2-methoxy-7-methylquinoxalin-5-yl)-7,8-dihydrobenzofuro[5,4-d]thiazo 1-7-yl)methyl (5-carbamoylpyridin-3-yl)carbamate]	1.3
COc1cnc2c(-c3nc4cc(F)c5c(c4s3)C[C@H](COC(=O)Nc3ccc(-c4ncco4)cc3)O5)cc(C)cc2n1 [Example 207, (R)-(5-fluoro-2-(2-methoxy-7-methylquinoxalin-5-yl)-7,8-dihydrobenzofuro[5,4-d]thiazo 1-7-yl)methyl (4-(oxazol-2-yl)phenyl)carbamate]	2.2
